Experimental data from patent publication US12435061B2 (priority 2020, dated 2025).
pIC50: −log10 of the molar value. Converted amounts (≈) assume the structure as drawn. Structures can show the parent of a compound that is named as a salt. Where two headings read alike, the source gives them in different places.

Assays:
[1] = biological target: hTRPV3 (Homo sapiens (Human), UniProt Q8NET8); assay: Whole-cell patch clamp, hTRPV3 Phase 1 / Phase 2 currents; format: cell-based; details: for pIC50: inward
Sequence of hTRPV3 (Q8NET8 whole entry): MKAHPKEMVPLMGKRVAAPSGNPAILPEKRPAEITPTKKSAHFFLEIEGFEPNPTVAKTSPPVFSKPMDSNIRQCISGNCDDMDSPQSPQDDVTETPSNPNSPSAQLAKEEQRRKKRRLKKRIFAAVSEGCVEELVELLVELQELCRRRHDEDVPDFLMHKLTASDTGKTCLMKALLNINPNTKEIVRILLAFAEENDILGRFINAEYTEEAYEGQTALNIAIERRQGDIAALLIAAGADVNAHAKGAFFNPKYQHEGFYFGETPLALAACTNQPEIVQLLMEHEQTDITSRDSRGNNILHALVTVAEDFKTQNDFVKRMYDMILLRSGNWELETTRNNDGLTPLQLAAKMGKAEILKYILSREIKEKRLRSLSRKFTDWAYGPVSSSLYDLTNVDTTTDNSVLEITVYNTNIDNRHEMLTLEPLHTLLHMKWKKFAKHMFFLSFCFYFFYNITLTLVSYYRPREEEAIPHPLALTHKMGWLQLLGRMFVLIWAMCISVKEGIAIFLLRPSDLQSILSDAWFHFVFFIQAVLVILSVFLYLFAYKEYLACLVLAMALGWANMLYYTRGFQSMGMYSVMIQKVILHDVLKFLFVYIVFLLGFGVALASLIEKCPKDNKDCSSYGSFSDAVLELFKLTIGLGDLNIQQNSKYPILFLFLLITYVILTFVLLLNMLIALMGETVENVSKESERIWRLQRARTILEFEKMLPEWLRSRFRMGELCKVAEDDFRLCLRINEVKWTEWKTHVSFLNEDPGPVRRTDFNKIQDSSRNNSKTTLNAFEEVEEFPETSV
How it was run: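 Whole-cell recordings on induced TRPV3 cells replated on coverslips, held at −40 mV with 400 ms ramps from −120 to +100 mV every 5 s; currents read at −80 and +80 mV. Ringer's external solution; current activated by heating to ≥28 °C or 20 μM 2-APB.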

[2] = Aqueous solubility assay in Normal Ringer Solution; details: Normal Ringer Solution; for solubility at 40 min: saline or isotonic, kinetic from dmso stock; for Solubility Ringer (nM): room temperature
Procedure: Following vortex and incubation for a sufficient time (e.g. 40 minutes at room temperature), solutions were filtered, quenched with acetonitrile, and analyzed by Liquid Chromotography. Solubility Limits were determined by comparison to a standard curve.

[3] = read-out: hTRPV3 (nM) (Phase 2)
[4] = Phase 1 current, whole-cell patch clamp, read-out: hTRPV3 Patch P1 Inwd
[5] = Phase 1 current, read-out: hTRPV3 (nM) (Phase 1)
[6] = Phase 2 current, whole-cell patch clamp, read-out: hTRPV3 Patch P2 Inwd
[7] = Phase 2 current, read-out: hTRPV3 (nM) (Phase 2)
[8] = Phase 1 current, human TRPV3, read-out: hTRPV3 (nM) Phase 1

Cl.NC(=O)c1cc(-c2cccnc2)ccc1N1CC[C@@H](Oc2ncccc2Cl)C1 [Compound 1-74, (R)-2-(3-(3-chloropyridin-2-yloxy)pyrrolidin-1-yl)-5-(pyridin-3-yl)benzamide hydrochloride]
IC50 ([1]; hTRPV3 Patch P2 Inwd (nM)): > 1000 nM
IC50 [1, 3]: ~5040 nM
solubility at 40 min [2]: > 13.5 µM

NC(=O)c1cc(-c2ccccc2)ccc1N1CC[C@@H](Oc2ncccc2Cl)C1 [Compound 1-75, (R)-4-(3-(3-chloropyridin-2-yloxy)pyrrolidin-1-yl)biphenyl-3-carboxamide]
pIC50 [1, 4]: < 6.00
IC50 [1, 5]: ~2300 nM
pIC50 [1, 6]: 6.00 to 7.00
IC50 [1, 7]: 342 nM
solubility at 40 min [2]: 0.32 µM (≈ 0.126 µg/mL)

CC(C)Oc1ccccc1N1CC[C@H](Oc2ccc3cc(Cl)ccc3n2)C1 [Compound 1-76, (S)-6-chloro-2-(1-(2-isopropoxyphenyl)pyrrolidin-3-yloxy)quinoline]
pIC50 [1, 4]: < 6.00
IC50 [1, 5]: > 3200 nM
pIC50 [1, 6]: < 6.00
IC50 [1, 7]: ~4600 nM
Solubility Ringer (nM) [2]: BLQ

NC(=O)c1cc(-c2cccnc2)ccc1N1CC[C@H](Oc2ccc(C(F)(F)F)cn2)C1 [Compound 1-80, (S)-5-(pyridin-3-yl)-2-(3-(5-(trifluoromethyl)pyridin-2-yloxy)pyrrolidin-1-yl)benzamide]
pIC50 [1, 4]: < 6.00
IC50 [1, 5]: > 3200 nM
pIC50 [1, 6]: < 6.00
IC50 [1, 7]: ~5900 nM
solubility at 40 min [2]: > 3.3 µM

NC(=O)c1cc(-c2ccccn2)ccc1N1CC[C@H](Oc2ccc(C(F)(F)F)cn2)C1 [Compound 1-81, (S)-5-(pyridin-2-yl)-2-(3-(5-(trifluoromethyl)pyridin-2-yloxy)pyrrolidin-1-yl)benzamide]
pIC50 [1, 4]: < 6.00
IC50 [1, 5]: > 3200 nM
pIC50 [1, 6]: < 6.00
IC50 [1, 7]: 2190 nM
solubility at 40 min [2]: ~1.4 µM (≈ 0.6 µg/mL)

NC(=O)c1cc(-c2ccncc2)ccc1N1CC[C@H](Oc2ccc(C(F)(F)F)cn2)C1 [Compound 1-83, (S)-5-(pyridin-4-yl)-2-(3-(5-(trifluoromethyl)pyridin-2-yloxy)pyrrolidin-1-yl)benzamide]
pIC50 [1, 4]: < 6.00
IC50 [1, 5]: 2840 nM
pIC50 [1, 6]: < 6.00
IC50 [1, 7]: 3350 nM
solubility at 40 min [2]: > 3.9 µM

N#Cc1cc(-c2ccccc2)ncc1N1CC[C@@H](Oc2ccc(C(F)(F)F)cn2)C1 [Compound 1-94]
hTRPV3 (nM) (Phase 2) ([1]; Phase 2 current): Incomplete Block
pIC50 ([1]; Phase 2 current, numeric value printed in cell (flagged), read-out: hTRPV3 Patch P2 Inwd): ~6.93
IC50 [1, 7]: ~117 nM
Solubility Ringer (nM) [2]: BLQ

NS(=O)(=O)c1cc(-c2ccccc2)ccc1N1CC[C@@H](Oc2ccc(C(F)(F)F)cn2)C1 [Compound 1-102]
pIC50 [1, 4]: < 6.00
pIC50 [1, 6]: < 6.00
solubility at 40 min [2]: ~0.23 µM (≈ 0.107 µg/mL)

NCc1cc(-c2ccccc2)ccc1N1CC[C@@H](Oc2ccc(C(F)(F)F)cn2)C1 [Compound 1-109, (R)-(4-(3-(5-(trifluoromethyl)pyridin-2-yloxy)pyrrolidin-1-yl)biphenyl-3-yl)methanamine hydrochloride]
IC50 ([1]; hTRPV3 Patch P1 Inwd (nM)): > 1000 nM
IC50 ([1]; hTRPV3 Patch P2 Inwd (nM)): > 1000 nM
IC50 ([1]; read-out: hTRPV3 (nM) (Phase 1)): 1870 nM
IC50 [1, 3]: 1930 nM
solubility at 40 min [2]: > 2.95 µM

OCc1cc(-c2ccccc2)ccc1N1CC[C@@H](Oc2ccc(C(F)(F)F)cn2)C1 [Compound 1-110, (R)-(4-(3-(5-(trifluoromethyl)pyridin-2-yloxy)pyrrolidin-1-yl)biphenyl-3-yl)methanol]
pIC50 [1, 4]: 6.00 to 7.00
IC50 [1, 5]: 710 nM
pIC50 [1, 6]: 6.00 to 7.00
IC50 [1, 7]: 685 nM
Solubility Ringer (nM) [2]: BLQ

N#Cc1ccc(O[C@H]2CCN(c3ccc(-c4ccccc4)cc3CO)C2)nc1 [Compound 1-143, (S)-6-(1-(3-(hydroxymethyl)biphenyl-4-yl)pyrrolidin-3-yloxy)nicotinonitrile]
pIC50 [1, 4]: 6.00 to 7.00
IC50 [1, 5]: 337 nM
solubility at 40 min [2]: 1.4 µM (≈ 0.52 µg/mL)

N#Cc1ccccc1-c1ccc(N2CC[C@H](Oc3ccc(C(F)(F)F)cn3)C2)c(CO)c1 [Compound 1-155]
pIC50 [1, 4]: 6.00 to 7.00
Solubility Ringer (nM) [2]: BLQ

OCc1cc(-c2ccccc2)ncc1N1CC[C@H](Oc2ccc(C(F)(F)F)cn2)C1 [Compound 1-158]
pIC50 [1, 4]: 6.00 to 7.00
IC50 [1, 5]: 773 nM
pIC50 [1, 6]: 6.00 to 7.00
IC50 [1, 7]: 747 nM
solubility at 40 min [2]: ~2 µM (≈ 0.831 µg/mL)

NC(=O)c1ccccc1-c1ccc(N2CC[C@H](Oc3ccc(C(F)(F)F)cn3)C2)c(CO)c1 [Compound 1-159, (S)-3′-(hydroxymethyl)-4′-(3-(5-(trifluoromethyl)pyridin-2-yloxy)pyrrolidin-1-yl)biphenyl-2-carboxamide]
pIC50 [1, 4]: < 6.00
IC50 [1, 5]: > 3200 nM
pIC50 [1, 6]: < 6.00
IC50 [1, 7]: > 3200 nM
solubility at 40 min [2]: > 16.6 µM

CCc1ccccc1Oc1ccc(C2CC(=O)N(Cc3cccc(C)n3)C2)c(C(N)=O)c1 (stereo not drawn) [Compound 2-98, 5-(2-ethylphenoxy)-2-(1-((6-methylpyridin-2-yl)methyl)-5-oxopyrrolidin-3-yl)benzamide]
IC50 [1, 8]: > 3200 nM
pIC50 [1, 4]: < 6.00

CC(C)c1ccccc1Oc1ccc(C2CC(=O)N(Cc3ccccn3)C2)c(C(N)=O)c1 (stereo not drawn) [Compound 2-99, 5-(2-isopropylphenoxy)-2-(5-oxo-1-(pyridin-2-ylmethyl)pyrrolidin-3-yl)benzamide]
IC50 [1, 8]: > 3200 nM
pIC50 [1, 4]: < 6.00

CCc1ccccc1Oc1ccc(C2CC(=O)N(Cc3ccccn3)C2)c(C(N)=O)c1 (stereo not drawn) [Compound 2-100, 5-(2-ethylphenoxy)-2-(5-oxo-1-(pyridin-2-ylmethyl)pyrrolidin-3-yl)benzamide]
IC50 [1, 8]: > 3200 nM
pIC50 [1, 4]: < 6.00

CCc1ccccc1Oc1ccc(C2CC(=O)N(Cc3ccc(Cl)cn3)C2)c(C(N)=O)c1 (stereo not drawn) [Compound 2-101, 2-(1-((5-chloropyridin-2-yl)methyl)-5-oxopyrrolidin-3-yl)-5-(2-ethylphenoxy)benzamide]
IC50 [1, 8]: > 3200 nM
pIC50 [1, 4]: < 6.00

CC(C)c1ccccc1Oc1ccc(C2CC(=O)N(Cc3ccc(Cl)cn3)C2)c(C(N)=O)c1 (stereo not drawn) [Compound 2-102, 2-(1-((5-chloropyridin-2-yl)methyl)-5-oxopyrrolidin-3-yl)-5-(2-isopropylphenoxy)benzamide]
IC50 [1, 8]: ~2150 nM
pIC50 [1, 4]: < 6.00

Cc1nccnc1C(=O)N1CCC(c2ccc(-c3ccccc3C3CC3)cc2CO)C1 (stereo not drawn) [Compound 2-104, (3-(2′-cyclopropyl-3-(hydroxymethyl)biphenyl-4-yl)pyrrolidin-1-yl)(3-methylpyrazin-2-yl)methanone]
IC50 [1, 8]: 756 nM
pIC50 [1, 4]: 6.00 to 7.00

Cc1cnc(C(=O)N2CCC(c3ccc(-c4ccccc4C4CC4)cc3CO)C2)cn1 (stereo not drawn) [Compound 2-106, (3-(2′-cyclopropyl-3-(hydroxymethyl)biphenyl-4-yl)pyrrolidin-1-yl)(5-methylpyrazin-2-yl)methanone]
IC50 [1, 8]: 67 nM
pIC50 [1, 4]: 7.00 to 8.00

O=C(c1cnc(Cl)cn1)N1CCC(c2ccc(-c3ccccc3C3CC3)cc2CO)C1 (stereo not drawn) [Compound 2-108]
IC50 [1, 8]: 12.9 nM
pIC50 [1, 4]: 7.00 to 8.00

Cc1cncc(C(=O)N2CCC(c3ccc(-c4ccccc4C4CC4)cc3CO)C2)n1 (stereo not drawn) [Compound 2-109]
IC50 [1, 8]: 18.2 nM
pIC50 [1, 4]: 7.00 to 8.00

O=C(c1ccncn1)N1CCC(c2ccc(-c3ccccc3C3CC3)cc2CO)C1 (stereo not drawn) [Compound 2-110, (3-(2′-cyclopropyl-3-(hydroxymethyl)biphenyl-4-yl)pyrrolidin-1-yl)(pyrimidin-4-yl)methanone]
IC50 [1, 8]: 197 nM
pIC50 [1, 4]: 6.00 to 7.00

O=C(c1cscn1)N1CCC(c2ccc(-c3ccccc3C3CC3)cc2CO)C1 (stereo not drawn) [Compound 2-111, (3-(2′-cyclopropyl-3-(hydroxymethyl)biphenyl-4-yl)pyrrolidin-1-yl)(thiazol-4-yl)methanone]
IC50 [1, 8]: 194 nM
pIC50 [1, 4]: 6.00 to 7.00

O=C(c1cc[nH]n1)N1CCC(c2ccc(-c3ccccc3C3CC3)cc2CO)C1 (stereo not drawn) [Compound 2-112, (3-(2′-cyclopropyl-3-(hydroxymethyl)biphenyl-4-yl)pyrrolidin-1-yl)(1H-pyrazol-3-yl)methanone]
IC50 [1, 8]: 98 nM
pIC50 [1, 4]: 7.00 to 8.00

CCc1ccccc1-c1ccc(C2CCN(C(=O)C3CCN(C)CC3)C2)c(CO)c1 (stereo not drawn) [Compound 2-115]
IC50 [1, 8]: > 3200 nM

CC(C)c1ccccc1Oc1ccc(C2CCN(C(=O)Cc3ncccc3Cl)C2)c(CO)c1 (stereo not drawn) [Compound 2-117]
IC50 [1, 8]: ~3500 nM
IC50 ([1]; Phase 2 current, human TRPV3, read-out: hTRPV3 (nM) Phase 2): 2620 nM

COC(=O)c1cc(-c2ccccc2C(C)C)ccc1C1CCN(C(=O)C(F)(F)F)C1 (stereo not drawn) [Compound 2-120]
IC50 [1, 8]: > 3200 nM

O=C(c1cocn1)N1CCC(c2ccc(-c3ccccc3C3CC3)cc2CO)C1 (stereo not drawn) [Compound 2-121]
IC50 [1, 8]: 61.2 nM

O=C(c1ncccn1)N1CCC(c2ccc(-c3ccccc3C3CC3)cc2CO)C1 (stereo not drawn) [Compound 2-122]
IC50 [1, 8]: 202 nM

Cc1cc(C(=O)N2CCC(c3ccc(-c4ccccc4C4CC4)cc3CO)C2)no1 (stereo not drawn) [Compound 2-123]
IC50 [1, 8]: 62.9 nM

O=C(c1csc(Cl)n1)N1CCC(c2ccc(-c3ccccc3C3CC3)cc2CO)C1 (stereo not drawn) [Compound 2-124]
IC50 [1, 8]: 20.7 nM

(3-(4-(4-chloro-3-ethylpyridin-2-yloxy)-2-(hydroxymethyl)phenyl)pyrrolidin-1-yl)(5-fluoropyridin-2-yl)methanone [Compound 2-43]
IC50 [1, 8]: > 3200 nM
pIC50 [1, 4]: < 6.00

(S)-(6-(2-ethylphenoxy)-3-(3-(5-(trifluoromethyl)pyridin-2-yloxy)pyrrolidin-1-yl)pyridin-2-yl)methanol [Compound 1-212]
pIC50 [1, 4]: < 6.00
IC50 [1, 5]: > 3200 nM
